Results from paper PMC8480901 (PLoS ONE, 2021).
Values joined by “and” are separate entries in the source; they are usually repeats but may differ in a detail not shown here. Identical values can stand only once.

System: human PBMCs
Assay: LPS-induced cytokine and chemokine levels in human PBMC supernatant (Luminex, ELISA)
Type: cell-based
Settings: for CCl2, % reduction / CXCL1 % reduction / CXCL2 % reduction / MMP9 % reduction / CCl2, Mean / CXCL1, Mean / CXCL2, Mean / MMP9, Mean / CCl2, individual value / CXCL1, individual value / CXCL2, individual value / MMP9, individual value: LPS-stimulated PBMC supernatant; for CCl2, Mean / CXCL1, Mean / CXCL2, Mean / MMP9, Mean: sample size 2; for CCl2, individual value / CXCL1, individual value / CXCL2, individual value / MMP9, individual value: single replicate
[1] = LPS-stimulated human PBMC supernatant, 0.03 µM

## C=C[C@]1(C)C[C@@H](OC(=O)CS[C@@H]2CC[C@@H](N)C[C@H]2O)[C@]2(C)[C@H](C)CC[C@]3(CCC(=O)[C@H]32)[C@@H](C)[C@@H]1O [Lefamulin]
0.03 µM
  CCl2, % reduction: -3.52%
  CXCL1 % reduction: -11%
  CXCL2 % reduction: -3%
  MMP9 % reduction: -7%
  CCl2, Mean: 1309 pg/mL
  CXCL1, Mean: 6607 pg/mL
  CXCL2, Mean: 5213 pg/mL
  MMP9, Mean: 3113 pg/mL
  CCl2, individual value: 1274 pg/mL and 1344 pg/mL
  CXCL1, individual value: 6599 pg/mL and 6616 pg/mL
  CXCL2, individual value: 5117 pg/mL and 5308 pg/mL
  MMP9, individual value: 3135 pg/mL and 3092 pg/mL
0.1 µM
  CCl2, % reduction: -1%
  CXCL1 % reduction: -3%
  CXCL2 % reduction: 3%
  MMP9 % reduction: 6%
  CCl2, Mean: 1279 pg/mL
  CXCL1, Mean: 6126 pg/mL
  CXCL2, Mean: 4904 pg/mL
  MMP9, Mean: 2899 pg/mL
  CCl2, individual value: 1178 pg/mL and 1379 pg/mL
  CXCL1, individual value: 5750 pg/mL and 6502 pg/mL
  CXCL2, individual value: 4854 pg/mL and 4955 pg/mL
  MMP9, individual value: 2852 pg/mL and 2946 pg/mL
0.3 µM
  CCl2, % reduction: -8%
  CXCL1 % reduction: -11%
  CXCL2 % reduction: -1.83%
  MMP9 % reduction: -13%
  CCl2, Mean: 1360 pg/mL
  CXCL1, Mean: 6577 pg/mL
  CXCL2, Mean: 5150 pg/mL
  MMP9, Mean: 3213 pg/mL
  CCl2, individual value: 1440 pg/mL and 1281 pg/mL
  CXCL1, individual value: 6950 pg/mL and 6204 pg/mL
  CXCL2, individual value: 5157 pg/mL and 5144 pg/mL
  MMP9, individual value: 3328 pg/mL and 3097 pg/mL
1 µM
  CCl2, % reduction: -4.42%
  CXCL1 % reduction: -4.56%
  CXCL2 % reduction: 2.67%
  MMP9 % reduction: -10%
  CCl2, Mean: 1320 pg/mL
  CXCL1, Mean: 6222 pg/mL
  CXCL2, Mean: 4923 pg/mL
  MMP9, Mean: 3154 pg/mL
  CCl2, individual value: 1176 pg/mL and 1464 pg/mL
  CXCL1, individual value: 5695 pg/mL and 6750 pg/mL
  CXCL2, individual value: 4726 pg/mL and 5120 pg/mL
  MMP9, individual value: 3230 pg/mL and 3077 pg/mL
3 µM
  CCl2, % reduction: -29%
  CXCL1 % reduction: -12%
  CXCL2 % reduction: -3.75%
  MMP9 % reduction: -3%
  CCl2, Mean: 1626 pg/mL
  CXCL1, Mean: 6685 pg/mL
  CXCL2, Mean: 5247 pg/mL
  MMP9, Mean: 3044 pg/mL
  CCl2, individual value: 1606 pg/mL and 1647 pg/mL
  CXCL1, individual value: 6614 pg/mL and 6757 pg/mL
  CXCL2, individual value: 5389 pg/mL and 5104 pg/mL
  MMP9, individual value: 3098 pg/mL and 2991 pg/mL
10 µM
  CCl2, % reduction: -40%
  CXCL1 % reduction: -16%
  CXCL2 % reduction: 2.3%
  MMP9 % reduction: 13%
  CCl2, Mean: 1763 pg/mL
  CXCL1, Mean: 6870 pg/mL
  CXCL2, Mean: 4942 pg/mL
  MMP9, Mean: 2781 pg/mL
  CCl2, individual value: 1714 pg/mL and 1811 pg/mL
  CXCL1, individual value: 6794 pg/mL and 6946 pg/mL
  CXCL2, individual value: 4972 pg/mL and 4912 pg/mL
  MMP9, individual value: 2867 pg/mL and 2696 pg/mL
30 µM
  CCl2, % reduction: 8%
  CXCL1 % reduction: 7%
  CXCL2 % reduction: 6%
  MMP9 % reduction: 27%
  CCl2, Mean: 1163 pg/mL
  CXCL1, Mean: 5540 pg/mL
  CXCL2, Mean: 4765 pg/mL
  MMP9, Mean: 2563 pg/mL
  CCl2, individual value: 1184 pg/mL and 1143 pg/mL
  CXCL1, individual value: 5594 pg/mL and 5487 pg/mL
  CXCL2, individual value: 4928 pg/mL and 4603 pg/mL
  MMP9, individual value: 2485 pg/mL and 2640 pg/mL
100 µM
  CCl2, % reduction: 92%
  CXCL1 % reduction: 73%
  CXCL2 % reduction: 2.31%
  MMP9 % reduction: 11%
  CCl2, Mean: 141 pg/mL
  CXCL1, Mean: 1638 pg/mL
  CXCL2, Mean: 4941 pg/mL
  MMP9, Mean: 2809 pg/mL
  CCl2, individual value: 141 pg/mL
  CXCL1, individual value: 1562 pg/mL and 1715 pg/mL
  CXCL2, individual value: 4788 pg/mL and 5094 pg/mL
  MMP9, individual value: 2812 pg/mL and 2806 pg/mL
[1]
  GM-CSF % reduction: -7%
  GM-CSF [pg/mL], Mean: 705 pg/mL
  GM-CSF [pg/mL], individual value: 721 pg/mL and 689 pg/mL
  IL-1β % reduction: -4.62%
  IL-1β [pg/mL], Mean: 13375 pg/mL
  IL-1β [pg/mL], individual value: 13502 pg/mL and 13249 pg/mL
  IL-6 % reduction: 9%
  IL-6 [pg/mL], Mean: 31710 pg/mL
  IL-6 [pg/mL], individual value: 32710 pg/mL and 30710 pg/mL
  IL-8 % reduction: -7%
  IL-8 [pg/mL], Mean: 3113 pg/mL
  IL-8 [pg/mL], individual value: 3135 pg/mL and 3092 pg/mL
